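Cells were grown in 96-well plates and exposed to each compound for 48 hours at five concentrations; endpoints were interpolated linearly between bracketing concentrations, or set to the highest concentration if not reached. The concentration for full growth arrest is given as TGI.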

For one test, the system named is CAKI-1 renal. The experiment in a line: inhibition of tumour cell growth, NCI panel, 48 h.
With `c1ccc(SC2CCSc3ccccc3C2Sc2ccccc2)cc1` (stereo not given), the TGI was determined as 85 µM.
Still for that read-out and setting: to `O=c1n(-c2ccccc2)c(=O)n2n1C1C=CC2C2C(C1)C2(Cl)Cl` (stereo not given) belongs over 100 µM; to `CCc1c(OC(C)=O)c2c(NC3OC(COC(C)=O)C(OC(C)=O)C(OC(C)=O)C3OC(C)=O)nc(OC)nc2oc1=O` (stereo not given), over 100 µM; to `O=C(NC(=O)c1cn(CCNCCO)c(=O)[nH]c1=O)OCc1ccccc1`, over 100 µM.
Still for that read-out and setting: to `CCC1C2C=CC(CC2)N1S(=O)(=O)c1ccc(C)cc1` (stereo not given) belongs over 100 µM; to `CCOc1ccc(N2C(=O)/C(=C/c3ccc(N(CCC#N)CCC#N)cc3)N=C2c2cc([N+](=O)[O-])ccc2Cl)cc1`, 87.1 µM; to `O=C(N/N=C1/C(=O)N(c2ccc(Cl)cc2Cl)C(=O)C(=O)C1c1nc2ccccc2o1)c1ccccc1O` (stereo not given), over 100 µM.
On the same count and under the same terms, to `O=C(O)CSc1n[nH]c(-c2ccccc2)n1` belongs over 100 µM; to `CCOc1ccc2c(c1)[n+]([O-])c(-c1ccccc1Cl)c(N)[n+]2[O-]`, over 100 µM.

Another test has as its system M14 melanoma. The experiment in a line: inhibition of tumour cell growth, NCI panel, 48 h.
For `c1ccc(SC2CCSc3ccccc3C2Sc2ccccc2)cc1` (stereo not given), the TGI was over 100 µM.
As for `O=C(Nc1cc(Cl)ccc1Cl)c1cc2cccc(Cl)c2oc1=O`, the TGI is over 100 µM.
`O=c1n(-c2ccccc2)c(=O)n2n1C1C=CC2C2C(C1)C2(Cl)Cl` (stereo not given) registered a TGI of over 100 µM.
On the same count and under the same terms, to `Cc1ccc(Cn2c(C)nc3c2C(=O)c2ccccc2C3=O)cc1` belongs over 100 µM; to `CCOC(=O)C(C)(C)Oc1ccc2c(C)c(-c3ccc(Cl)cc3)c(=O)oc2c1`, over 100 µM.
Molecule `CCc1c(OC(C)=O)c2c(NC3OC(COC(C)=O)C(OC(C)=O)C(OC(C)=O)C3OC(C)=O)nc(OC)nc2oc1=O` (stereo not given) had a TGI of over 100 µM.
Still for that read-out and setting: to `O=C(NC(=O)c1cn(CCNCCO)c(=O)[nH]c1=O)OCc1ccccc1` belongs over 100 µM; to `CCC1C2C=CC(CC2)N1S(=O)(=O)c1ccc(C)cc1` (stereo not given), over 100 µM.
In the case of `CCOc1ccc(N2C(=O)/C(=C/c3ccc(N(CCC#N)CCC#N)cc3)N=C2c2cc([N+](=O)[O-])ccc2Cl)cc1`, the TGI was 61.3 µM.
On the same count and under the same terms, to `COc1ccc(-c2cc(-c3ccccc3)c(C#N)c(=O)n2C2OC(CO)C(O)C(O)C2O)cc1` (stereo not given) belongs over 100 µM; to `O=C(N/N=C1/C(=O)N(c2ccc(Cl)cc2Cl)C(=O)C(=O)C1c1nc2ccccc2o1)c1ccccc1O` (stereo not given), 76.2 µM; to `O=C(O)CSc1n[nH]c(-c2ccccc2)n1`, over 100 µM.
The same measure, in the same setting: to `O=C1[C@@H]2C3c4ccccc4C([C@@H]2C(=O)N1c1ccccc1)S3(=O)=O` belongs over 100 µM.
As for `COc1ccc(/C(=N\NC(=O)C(N)=O)C(c2ccc(OC)cc2)C2(O)C(=O)Nc3c(Cl)cccc32)cc1` (stereo not given), the TGI is over 100 µM.
Molecule `CCOc1ccc2c(c1)[n+]([O-])c(-c1ccccc1Cl)c(N)[n+]2[O-]` returned a TGI of over 100 µM.

The next test relates to CCRF-CEM leukemia. The experiment in a line: inhibition of tumour cell growth, NCI panel, 48 h.
Molecule `c1ccc(SC2CCSc3ccccc3C2Sc2ccccc2)cc1` (stereo not given) registered a TGI of over 100 µM.
Molecule `O=C(Nc1cc(Cl)ccc1Cl)c1cc2cccc(Cl)c2oc1=O` came in with a TGI of over 100 µM.
On the same count and under the same terms, to `O=c1n(-c2ccccc2)c(=O)n2n1C1C=CC2C2C(C1)C2(Cl)Cl` (stereo not given) belongs over 100 µM.
`Cc1ccc(Cn2c(C)nc3c2C(=O)c2ccccc2C3=O)cc1` came in with a TGI of over 100 µM.
In turn, `CCOC(=O)C(C)(C)Oc1ccc2c(C)c(-c3ccc(Cl)cc3)c(=O)oc2c1` returned a TGI of over 100 µM.
`CCc1c(OC(C)=O)c2c(NC3OC(COC(C)=O)C(OC(C)=O)C(OC(C)=O)C3OC(C)=O)nc(OC)nc2oc1=O` (stereo not given): the TGI is over 100 µM.
`O=C(NC(=O)c1cn(CCNCCO)c(=O)[nH]c1=O)OCc1ccccc1` came in with a TGI of over 100 µM.
Take `CCC1C2C=CC(CC2)N1S(=O)(=O)c1ccc(C)cc1` (stereo not given): the TGI is over 100 µM.
Same read-out and setting: to `COc1ccc(-c2cc(-c3ccccc3)c(C#N)c(=O)n2C2OC(CO)C(O)C(O)C2O)cc1` (stereo not given) belongs over 100 µM.
Consider `O=C(N/N=C1/C(=O)N(c2ccc(Cl)cc2Cl)C(=O)C(=O)C1c1nc2ccccc2o1)c1ccccc1O` (stereo not given), for which the TGI is over 100 µM.
For `O=C(O)CSc1n[nH]c(-c2ccccc2)n1`, the TGI is over 100 µM.
The same measure, in the same setting: to `O=C1[C@@H]2C3c4ccccc4C([C@@H]2C(=O)N1c1ccccc1)S3(=O)=O` belongs over 100 µM; to `COc1ccc(/C(=N\NC(=O)C(N)=O)C(c2ccc(OC)cc2)C2(O)C(=O)Nc3c(Cl)cccc32)cc1` (stereo not given), over 100 µM.
As to `CCOc1ccc2c(c1)[n+]([O-])c(-c1ccccc1Cl)c(N)[n+]2[O-]`, the TGI was over 100 µM.

In another test the test system is 786-0 renal. The experiment in a line: inhibition of tumour cell growth, NCI panel, 48 h.
Turning to `c1ccc(SC2CCSc3ccccc3C2Sc2ccccc2)cc1` (stereo not given), the TGI is over 100 µM.
Same read-out and setting: to `O=C(Nc1cc(Cl)ccc1Cl)c1cc2cccc(Cl)c2oc1=O` belongs over 100 µM; to `O=c1n(-c2ccccc2)c(=O)n2n1C1C=CC2C2C(C1)C2(Cl)Cl` (stereo not given), over 100 µM.
On the same count and under the same terms, to `Cc1ccc(Cn2c(C)nc3c2C(=O)c2ccccc2C3=O)cc1` belongs 19.7 µM; to `CCOC(=O)C(C)(C)Oc1ccc2c(C)c(-c3ccc(Cl)cc3)c(=O)oc2c1`, over 100 µM; to `CCc1c(OC(C)=O)c2c(NC3OC(COC(C)=O)C(OC(C)=O)C(OC(C)=O)C3OC(C)=O)nc(OC)nc2oc1=O` (stereo not given), over 100 µM.
Turning to `O=C(NC(=O)c1cn(CCNCCO)c(=O)[nH]c1=O)OCc1ccccc1`, the TGI was over 100 µM.
In turn, `CCC1C2C=CC(CC2)N1S(=O)(=O)c1ccc(C)cc1` (stereo not given) showed a TGI of over 100 µM.
`CCOc1ccc(N2C(=O)/C(=C/c3ccc(N(CCC#N)CCC#N)cc3)N=C2c2cc([N+](=O)[O-])ccc2Cl)cc1`: the TGI stood at 26.4 µM.
With `COc1ccc(-c2cc(-c3ccccc3)c(C#N)c(=O)n2C2OC(CO)C(O)C(O)C2O)cc1` (stereo not given), the TGI was over 100 µM.
On the same count and under the same terms, to `O=C(N/N=C1/C(=O)N(c2ccc(Cl)cc2Cl)C(=O)C(=O)C1c1nc2ccccc2o1)c1ccccc1O` (stereo not given) belongs over 100 µM.
In the case of `O=C(O)CSc1n[nH]c(-c2ccccc2)n1`, the TGI was over 100 µM.

Values taken from PubChem BioAssay (NCI).
